Calls of active or inactive are those of the source.
What was measured:
Estrogen receptor beta = Estrogen receptor beta (Homo sapiens, UniProt Q92731);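 also: recombinant ER-beta bound to coactivator SRC1 peptide in presence of estradiol agonist; inhibitors block coactivator peptide binding and lower the FRET signal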
[1] = target: Lytic switch protein BZLF1 (Epstein-Barr virus (strain B95-8) (HHV-4) (Human herpesvirus 4), UniProt P03206); test: EBV ZTA inhibitors, dose response, counter-screen for EBNA-1 inhibitor project, biochemical, fluorescence polarization, Epstein-Barr virus, 1536-well (AID 2377); parameters: species or system human gammaherpesvirus 4;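 also: fluorescence polarization of Cy5-labelled ZRE DNA probe bound by purified Zta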
[2] = target: Epstein-Barr nuclear antigen 1 (Epstein-Barr virus (strain B95-8) (HHV-4) (Human herpesvirus 4), UniProt P03211); test: EBNA-1 inhibitors, dose response, biochemical, fluorescence polarization, 1536-well (AID 2381); parameters: species or system human gammaherpesvirus 4;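 also: fluorescence polarization of a Cy5 DNA probe bound by EBNA-1 protein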
[3] = Jurkat T cell cytotoxicity, dose response, cytotoxicity control for P. falciparum gametocyte viability project, luminescence (AID 1117277); format: functional, cell-based;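 also: potency reflects loss of cellular ATP meaning fewer viable cells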
[4] = P. falciparum late gametocyte killing, dose response, luminescence (AID 1117278); format: functional, cell-based;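 also: gametocytes exposed to compound for 24 hours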
[5] = P. falciparum ATP4 D1247Y mutant growth inhibitors, dose response, NITD609-resistant line, SYBR Green, dry powder (AID 1159571); format: functional, cell-based;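 also: parasites synchronized at ring stage by sorbitol before testing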
[6] = P. falciparum 3D7-ScDHODH growth inhibitors, dose response, SYBR Green, dry powder samples (AID 1159570); format: functional, cell-based;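 also: parasite growth measured after 72 hours of compound exposure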
[7] = HepG2 cell cytotoxicity, dose response, cytotoxicity control, plate reader, dry powder samples (AID 1159569); format: functional, cell-based;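 also: inhibitor potency with signal falling toward the positive control level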
[8] = HepG2 cell cytotoxicity, dose response, cytotoxicity control, cherry-picked samples (AID 1159577); format: functional, cell-based
[9] = P. falciparum Dd2 growth inhibitors, dose response, SYBR Green, cherry-picked samples (AID 1159567); format: functional, cell-based
[10] = P. falciparum Dd2 growth inhibitors, dose response, SYBR Green, dry powder samples (AID 1159566); format: functional, cell-based;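 also: potency for growth inhibition with lower SYBR green DNA signal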
[11] = Luminescence-based cell-based high throughput dose response assay to identify activators of the DAF-12 from the parasite S. stercoralis (ssDAF-12).; format: functional
[12] = target: T1, Heat shock factor protein 1 (Mus musculus, UniProt P38532); test: HSF1 potentiators in luciferase reporter cells, confirmation, cell-based, NIH3T3, luminescence, dose retest (AID 435004); format: functional;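 also: stress induced by proteasome inhibitor MG132 added 30 min after compound; luciferase reporter driven by HSF1 response element in NIH3T3 cells; actives raise luminescence as potentiators of the MG132 stress response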
T1 sequence (P38532 whole entry): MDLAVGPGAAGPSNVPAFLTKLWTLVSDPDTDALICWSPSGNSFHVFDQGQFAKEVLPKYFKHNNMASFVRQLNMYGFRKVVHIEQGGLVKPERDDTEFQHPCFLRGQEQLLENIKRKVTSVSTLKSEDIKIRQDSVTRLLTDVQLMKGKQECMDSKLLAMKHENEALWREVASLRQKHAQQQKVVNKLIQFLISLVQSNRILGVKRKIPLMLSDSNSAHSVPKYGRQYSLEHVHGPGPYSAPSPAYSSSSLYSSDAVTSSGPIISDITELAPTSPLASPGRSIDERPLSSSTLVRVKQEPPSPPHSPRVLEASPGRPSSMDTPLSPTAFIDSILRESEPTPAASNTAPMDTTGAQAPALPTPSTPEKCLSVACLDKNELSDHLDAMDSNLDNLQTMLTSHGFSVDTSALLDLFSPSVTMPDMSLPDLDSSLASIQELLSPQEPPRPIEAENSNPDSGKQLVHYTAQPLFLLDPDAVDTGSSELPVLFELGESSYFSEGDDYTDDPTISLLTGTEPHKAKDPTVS

[13] = target: T2, Oxysterols receptor LXR-beta (Homo sapiens, UniProt P55055); test: LXR agonists, Gal4 luciferase reporter, dose response, counter-screen for ssDAF-12 agonist project, cell-based, luminescence, HEK293, S. stercoralis campaign (AID 720737); format: functional; conditions: read-out: IC50 (the source's name)
T2 sequence (P55055 whole entry): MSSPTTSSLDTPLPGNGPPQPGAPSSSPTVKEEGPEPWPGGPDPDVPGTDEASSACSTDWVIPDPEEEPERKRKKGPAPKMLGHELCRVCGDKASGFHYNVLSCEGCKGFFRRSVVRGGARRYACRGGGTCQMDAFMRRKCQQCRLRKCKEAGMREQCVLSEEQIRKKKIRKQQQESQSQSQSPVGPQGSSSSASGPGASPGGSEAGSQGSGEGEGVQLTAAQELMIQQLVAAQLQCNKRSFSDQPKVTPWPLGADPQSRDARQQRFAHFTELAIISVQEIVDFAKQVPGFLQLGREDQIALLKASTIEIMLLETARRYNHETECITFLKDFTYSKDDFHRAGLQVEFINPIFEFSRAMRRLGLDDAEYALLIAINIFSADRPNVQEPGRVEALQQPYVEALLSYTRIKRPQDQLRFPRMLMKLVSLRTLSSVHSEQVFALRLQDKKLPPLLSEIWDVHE

NADPH oxidase 1 = target: T3, NADPH oxidase 1 (Homo sapiens, UniProt Q9Y5S8); format: functional, cell-based;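 also: Cell-based assay with luminescence read-out, IC50 derived from inhibitor dose-response curves; intracellular ROS from endogenous NOX1 in intact HT29 colon cancer cells; potency of inhibitors that lower the ROS luminescence signal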
T3 sequence (Q9Y5S8 whole entry): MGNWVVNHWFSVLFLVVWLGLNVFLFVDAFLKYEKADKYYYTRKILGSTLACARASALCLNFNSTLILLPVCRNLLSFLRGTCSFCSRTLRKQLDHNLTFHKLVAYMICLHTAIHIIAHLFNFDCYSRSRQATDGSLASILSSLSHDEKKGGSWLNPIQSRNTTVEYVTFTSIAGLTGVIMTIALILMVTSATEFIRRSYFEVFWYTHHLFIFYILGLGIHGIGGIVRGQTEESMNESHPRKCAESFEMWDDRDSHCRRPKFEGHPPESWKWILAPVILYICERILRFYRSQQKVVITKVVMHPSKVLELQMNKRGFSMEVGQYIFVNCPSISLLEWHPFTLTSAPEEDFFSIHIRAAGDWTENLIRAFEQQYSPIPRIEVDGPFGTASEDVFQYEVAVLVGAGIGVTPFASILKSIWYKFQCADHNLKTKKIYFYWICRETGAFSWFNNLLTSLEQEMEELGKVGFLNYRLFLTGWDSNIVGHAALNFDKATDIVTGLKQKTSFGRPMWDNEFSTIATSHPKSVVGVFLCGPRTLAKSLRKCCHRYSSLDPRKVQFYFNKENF

[14] = target: T2, Oxysterols receptor LXR-beta; format: functional, cell-based
[15] = target: T4, Probable nicotinate-nucleotide adenylyltransferase (Staphylococcus aureus (strain N315), UniProt P65502); format: functional, Staphylococcus aureus subsp. aureus N315;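 as to IC50 Mean: confirmatory dose-response retesting of NadD inhibitor hits first found in an ultra-high-throughput screen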
Ephrin type-A receptor 4 = Ephrin type-A receptor 4 (Mus musculus, UniProt Q03137); test: inhibitors of EphA4 binding to KYL peptide, primary screen, biochemical, colorimetric, mouse EphA4 (AID 689); format: functional
[16] = target: T4, Probable nicotinate-nucleotide adenylyltransferase; format: functional, Staphylococcus aureus subsp. aureus N315; conditions: read-out: IC50_Mean
[17] = Luminescence Cell-Based Dose Response to Identify Activators of Luciferase Translation or Activity in H4-C Neuroglioblastoma Cells. [Related pubchem assays: 1829 (Project Summary), 1814 (Primary HTS)]; format: functional
[18] = Luminescence Cell-Based Dose Confirmation to Identify Activators of 5'UTR Stem-Loop Driven Alpha-Synuclein mRNA Translation in H4 Neuroglioblastoma Cells. [Related pubchem assays: 1829 (Project Summary), 1814 (Primary HTS)]; format: functional
[19] = Luminescence Cell-Based Dose Response HTS to Identify Activators of Luciferase Translation or Activity in H4 […] Cells. [Related pubchem assays: 1829 (Project Summary), 1814 (Primary HTS)]; format: functional
H4 = test: Luminescence Cell-Based Dose Response HTS to Identify Activators of 5'UTR Stem-Loop Driven Prion Protein mRNA Translation in H4 Neuroglioblastoma Cells. [Related pubchem assays: 1829 (Project Summary), 1814 (Primary HTS)]; format: functional; conditions: Homo sapiens
[20] = Luminescence Cell-Based Dose Confirmation HTS to Identify Activators of 5'UTR Stem-Loop Driven Alpha-Synuclein mRNA Translation in H4 Neuroglioblastoma Cells. [Related pubchem assays: 1829 (Project Summary), 1814 (Primary HTS)]; format: functional
[21] = Luminescence Cell-Based Dose Response to Identify Activators of 5'UTR Stem-Loop Driven Prion Protein mRNA Translation in H4-C Neuroglioblastoma Cells. [Related pubchem assays: 1829 (Project Summary), 1814 (Primary HTS)]; format: functional

T4 sequence (P65502 whole entry): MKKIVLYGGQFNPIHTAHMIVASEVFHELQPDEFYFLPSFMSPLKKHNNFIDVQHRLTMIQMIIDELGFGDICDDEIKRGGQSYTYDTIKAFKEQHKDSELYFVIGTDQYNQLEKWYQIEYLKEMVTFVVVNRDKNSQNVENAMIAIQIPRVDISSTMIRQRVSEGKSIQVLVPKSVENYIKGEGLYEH
Lytic switch protein BZLF1, sequence (P03206 whole entry): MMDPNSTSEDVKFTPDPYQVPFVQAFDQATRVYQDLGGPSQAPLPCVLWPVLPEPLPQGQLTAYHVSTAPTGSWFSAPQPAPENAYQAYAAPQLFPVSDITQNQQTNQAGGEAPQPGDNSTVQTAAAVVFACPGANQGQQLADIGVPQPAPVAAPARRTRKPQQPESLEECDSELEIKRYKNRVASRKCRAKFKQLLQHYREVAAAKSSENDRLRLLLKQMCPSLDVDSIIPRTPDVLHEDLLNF
Epstein-Barr nuclear antigen 1, sequence (P03211 whole entry): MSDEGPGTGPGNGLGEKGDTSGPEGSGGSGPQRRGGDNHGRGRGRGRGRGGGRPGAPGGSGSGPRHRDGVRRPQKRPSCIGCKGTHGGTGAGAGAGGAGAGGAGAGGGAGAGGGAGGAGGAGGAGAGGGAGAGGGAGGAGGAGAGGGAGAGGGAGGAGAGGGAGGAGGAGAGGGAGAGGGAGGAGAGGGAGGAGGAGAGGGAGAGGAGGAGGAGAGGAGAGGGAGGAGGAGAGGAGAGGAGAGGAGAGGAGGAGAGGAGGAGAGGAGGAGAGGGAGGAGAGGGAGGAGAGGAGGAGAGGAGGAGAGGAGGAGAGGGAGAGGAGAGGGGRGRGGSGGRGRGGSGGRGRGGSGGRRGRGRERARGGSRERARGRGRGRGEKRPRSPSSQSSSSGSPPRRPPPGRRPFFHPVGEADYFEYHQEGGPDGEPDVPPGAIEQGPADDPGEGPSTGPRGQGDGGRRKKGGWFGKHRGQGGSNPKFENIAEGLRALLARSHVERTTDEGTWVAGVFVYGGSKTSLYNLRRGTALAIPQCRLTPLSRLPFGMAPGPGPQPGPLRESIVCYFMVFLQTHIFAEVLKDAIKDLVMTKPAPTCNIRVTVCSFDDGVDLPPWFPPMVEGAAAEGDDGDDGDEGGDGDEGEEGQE
Ephrin type-A receptor 4, sequence (Q03137 whole entry): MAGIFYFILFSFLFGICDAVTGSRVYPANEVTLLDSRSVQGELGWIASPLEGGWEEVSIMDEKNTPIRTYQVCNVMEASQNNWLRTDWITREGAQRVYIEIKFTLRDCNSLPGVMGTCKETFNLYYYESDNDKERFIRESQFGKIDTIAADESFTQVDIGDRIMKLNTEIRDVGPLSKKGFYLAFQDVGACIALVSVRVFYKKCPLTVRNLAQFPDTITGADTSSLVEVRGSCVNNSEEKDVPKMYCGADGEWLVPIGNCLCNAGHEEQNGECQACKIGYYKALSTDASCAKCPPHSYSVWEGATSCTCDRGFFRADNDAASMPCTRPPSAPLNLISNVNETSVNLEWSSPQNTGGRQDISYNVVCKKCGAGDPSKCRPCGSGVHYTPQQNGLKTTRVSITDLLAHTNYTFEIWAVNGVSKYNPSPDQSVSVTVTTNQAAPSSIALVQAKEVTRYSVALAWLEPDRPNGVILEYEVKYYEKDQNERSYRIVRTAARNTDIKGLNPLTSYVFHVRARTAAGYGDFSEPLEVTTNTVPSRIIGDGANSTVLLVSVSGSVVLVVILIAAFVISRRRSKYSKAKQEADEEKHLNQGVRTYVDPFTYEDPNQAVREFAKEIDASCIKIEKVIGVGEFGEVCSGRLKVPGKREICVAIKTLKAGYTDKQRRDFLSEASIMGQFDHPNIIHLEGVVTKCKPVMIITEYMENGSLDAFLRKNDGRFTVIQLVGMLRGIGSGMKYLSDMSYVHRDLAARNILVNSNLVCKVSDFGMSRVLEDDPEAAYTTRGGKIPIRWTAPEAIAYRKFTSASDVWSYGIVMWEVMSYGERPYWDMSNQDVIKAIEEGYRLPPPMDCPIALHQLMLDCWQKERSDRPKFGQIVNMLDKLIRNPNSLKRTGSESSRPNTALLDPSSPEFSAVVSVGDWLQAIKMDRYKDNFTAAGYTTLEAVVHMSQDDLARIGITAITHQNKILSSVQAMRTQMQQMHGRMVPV
Estrogen receptor beta, sequence (Q92731 whole entry): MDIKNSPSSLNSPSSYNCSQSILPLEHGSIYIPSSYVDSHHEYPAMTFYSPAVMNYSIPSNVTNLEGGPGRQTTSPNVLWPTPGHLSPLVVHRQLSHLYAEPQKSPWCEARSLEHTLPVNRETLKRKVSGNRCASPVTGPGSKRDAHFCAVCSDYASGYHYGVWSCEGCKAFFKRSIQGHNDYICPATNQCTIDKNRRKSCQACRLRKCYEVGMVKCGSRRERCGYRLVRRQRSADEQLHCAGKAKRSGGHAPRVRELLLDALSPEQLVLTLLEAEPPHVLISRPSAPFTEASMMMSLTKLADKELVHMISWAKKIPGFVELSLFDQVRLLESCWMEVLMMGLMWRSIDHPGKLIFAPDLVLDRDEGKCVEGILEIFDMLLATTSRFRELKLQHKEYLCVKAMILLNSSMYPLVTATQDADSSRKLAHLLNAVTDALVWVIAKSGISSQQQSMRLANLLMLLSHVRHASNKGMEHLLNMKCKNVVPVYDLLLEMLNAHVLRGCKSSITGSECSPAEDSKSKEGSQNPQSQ

**Q.** Which IC50 (Estrogen receptor beta) does the source give for `C=CCN1C(=O)NC(=O)/C(=C(/CC)NCc2cccnc2)C1=O` here?
**A.** > 50 µM (not active)

**Q.** Which results are given for `N#Cc1ccccc1OCC(=O)Nc1c(C(=O)C2CC2)oc2ccccc12`?
**A.** IC50 [1]: > 111 µM (not active); IC50 [2]: 11 µM (not active)

**Q.** For `COc1ccc(Cl)cc1C(=O)CSc1nnnn1C1CCCCC1`, which IC50 [3] is on record?
**A.** 10.9 µM (inactive)

**Q.** What about the IC50 [4] of the same compound?
**A.** > 109 µM (inactive)

**Q.** What does the source list for `N#C[C@H]1[C@H](c2ccc(-c3cccc(F)c3)cc2)[C@H](CO)N1C(=O)c1cccnc1`?
**A.** AC50 [5]: 0.69 µM (active); AC50 [6]: 1.33 µM (active); AC50 [7]: 76.8 µM (active); AC50 [8]: > 39 µM (inactive); AC50 [9]: 1.16 µM (active); AC50 [10]: 0.641 µM (active)

**Q.** Which results are given for `O=c1[nH][nH]c2cc(=O)n(-c3cccc(C(F)(F)F)c3)nc12`?
**A.** IC50 [11]: > 67.5 µM (inactive); EC50 [12]: > 260 µM (inactive); EC50 [13]: > 67.5 µM (inactive)

**Q.** With `C=C(NNc1c(Cl)c(Cl)nc(C(=O)O)c1Cl)c1ccc(N2CCOCC2)cc1` as the compound, how does the IC50 (NADPH oxidase 1) read?
**A.** > 17 µM (not active)

**Q.** With `CC(C)c1ccc(-n2cnn(-c3ncccc3[N+](=O)[O-])c2=O)cc1` as the compound, how does the EC50 [14] read?
**A.** > 67.5 µM (inactive)

**Q.** And the EC50 (cells)?
**A.** > 67.5 µM (inactive)

**Q.** And the EC50 [12]?
**A.** > 260 µM (inactive)

**Q.** Which IC50 [15] does the source give for `CC(C)CC(C(=O)Nc1oc(-c2ccco2)c(-c2ccco2)c1C#N)N1C(=O)c2ccccc2C1=O` (centres undefined) here?
**A.** 16.4 µM (active)

**Q.** And the IC50 (Ephrin type-A receptor 4)?
**A.** > 100 µM (not active)

**Q.** And the IC50 [16]?
**A.** 53.1 µM (active)

**Q.** With `Cc1ccc(CNC(=O)c2ccc(Cn3cc(-c4ccc(C)cc4)nc3-c3ccncc3)cc2)cc1` as the compound, how does the EC50 [17] read?
**A.** 0.656 µM (active)

**Q.** And the EC50 [18]?
**A.** 1.12 µM (active)

**Q.** What about the EC50 [19] of the same compound?
**A.** < 0.1 µM (active)

**Q.** And the EC50 (H4)?
**A.** 1.33 µM (active)

**Q.** What about the EC50 [20] of the same compound?
**A.** < 0.1 µM (active)

**Q.** And the EC50 [21]?
**A.** > 12 µM (not active)

**Q.** With `Cc1ccc2nc3c(O)n(Cc4ccco4)cnc-3c2c1` as the compound, how does the IC50 [1] read?
**A.** > 111 µM (not active)

**Q.** And the IC50 [2]?
**A.** > 148 µM (not active)

From ChEMBL document CHEMBL1201862, “PubChem BioAssay data set” (2004)
